In the oligonucleotide strings, read from the 5' end, every base follows the letter of its sugar. An asterisk marks phosphorothioate; unmarked linkages are phosphodiester. Other units and linkages are bracketed, terminal groups are in braces. A string of capitals states the bases alone. e = 2'-O-(2-methoxyethyl) (MOE); [5mC] = 5-methylcytosine; d = 2'-deoxy (DNA)
Tested on: human Factor 7 mRNA
Assay: Antisense inhibition of human Factor 7 mRNA in HepB3 cells, lipofectin, 50 nM, real-time RT-PCR
Assay type: cell-based
Conditions: HepB3 cells
How it was run: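 Cells plated at 4,000 per well were transfected and harvested after approximately 24 hours of treatment. Transcript levels, measured with primer probe set RTS 2927, were normalised to total RNA by RIBOGREEN®. Values are percent inhibition relative to untreated control cells.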

[1] = lipofectin, 50 nM antisense oligonucleotide, approximately 24 hours, primer probe set RTS 2927, relative to untreated control

| Substance | % Inhibition of human Factor 7 mRNA levels [1] [%] | % Inhibition of human Factor 7 mRNA levels (gapmers (5-10-5, 3-14-3, 2-13-5 MOE) targeted to nucleobases 4868 to 4899 of SEQ ID NO: 1) [%] |
| --- | --- | --- |
| 416493 (antisense eT*e[5mC]*eT*eT*eG*dG*dG*dT*dG*dT*dG*dG*dA*dT*dG*eT*eA*eA*eA*eT) [compound 416493] | 0 | – |
| 416494 (antisense e[5mC]*eA*eG*eA*eT*dT*dT*dA*dA*dA*d[5mC]*dT*dG*d[5mC]*dA*eG*eA*eT*eG*eA) [compound 416494] | 0 | – |
| 416495 (antisense eT*e[5mC]*eT*eA*eG*dA*dA*dT*dT*d[5mC]*d[5mC]*dA*dA*dA*d[5mC]*e[5mC]*e[5mC]*e[5mC]*eT*eA) [compound 416495] | 0 | – |
| 416496 (antisense e[5mC]*eA*eA*e[5mC]*eA*d[5mC]*dT*dT*d[5mC]*dA*dA*dA*dT*dA*d[5mC]*eG*eA*eT*e[5mC]*eT) [compound 416496] | 0 | – |
| 416497 (antisense e[5mC]*eG*eT*eG*e[5mC]*dA*dG*dG*dT*dG*dT*dT*dA*dA*dG*eG*eT*eG*eT*eG) [compound 416497] | 0 | – |
| 416498 (antisense eG*eG*e[5mC]*e[5mC]*eA*dG*dT*dG*dG*d[5mC]*d[5mC]*dA*dT*dG*d[5mC]*eA*eT*e[5mC]*e[5mC]*e[5mC]) [compound 416498] | 5 | – |
| 416499 (antisense eG*eA*eG*eA*eG*d[5mC]*dT*dG*d[5mC]*dA*d[5mC]*d[5mC]*dT*dG*dG*e[5mC]*e[5mC]*eG*eG*e[5mC]) [compound 416499] | 7 | – |
| 416500 (antisense e[5mC]*eT*eG*eA*eA*d[5mC]*dA*d[5mC]*d[5mC]*d[5mC]*d[5mC]*dA*dG*d[5mC]*dT*eG*eA*eG*eA*eG) [compound 416500] | 1 | – |
| 416501 (antisense e[5mC]*eT*eG*e[5mC]*e[5mC]*d[5mC]*dT*dT*d[5mC]*d[5mC]*dA*d[5mC]*d[5mC]*dA*dA*eG*eT*eT*eT*eA) [compound 416501] | 18 | – |
| 416502 (antisense eG*eT*eT*e[5mC]*eT*dT*dT*dG*dA*dA*dA*dA*dA*dT*dA*eA*eT*e[5mC]*e[5mC]*e[5mC]) [compound 416502] | 22 | – |
| 416503 (antisense eT*eA*eG*e[5mC]*e[5mC]*dA*d[5mC]*d[5mC]*d[5mC]*d[5mC]*dG*d[5mC]*dG*dG*dG*e[5mC]*eT*eG*eG*e[5mC]) [compound 416503] | 0 | – |
| 416504 (antisense eT*e[5mC]*eA*eG*eA*dA*dA*dA*dG*d[5mC]*dT*d[5mC]*dT*d[5mC]*dA*eA*eG*eA*eA*e[5mC]) [compound 416504] | 0 | – |
| 416505 (antisense eG*e[5mC]*eA*eG*eA*dT*dT*dT*dG*d[5mC]*dA*dT*d[5mC]*dA*dG*eA*eA*eA*eA*eG) [compound 416505] | 45 | – |
| 416506 (antisense e[5mC]*eT*eT*eT*eA*dA*dA*dA*dT*d[5mC]*dA*dG*dT*dT*dT*e[5mC]*eA*e[5mC]*eA*e[5mC]) [compound 416506] | 18 | – |
| 416509 (antisense eA*eG*eG*eA*eG*d[5mC]*d[5mC]*d[5mC]*dG*dA*dG*dT*dT*d[5mC]*dT*eG*e[5mC]*eA*eG*eG) [compound 416509] | 56 | 60 |
| 416510 (antisense eG*eA*e[5mC]*eG*eA*dG*dG*d[5mC]*d[5mC]*dT*d[5mC]*dA*dG*dG*dT*eG*eG*eA*e[5mC]*eG) [compound 416510] | 30 | – |
| 416511 (antisense eT*eT*eG*e[5mC]*eT*dG*dG*dG*dA*dG*dG*dA*d[5mC]*dG*dA*eG*eG*e[5mC]*e[5mC]*eT) [compound 416511] | 35 | – |
| 416512 (antisense eG*eA*e[5mC]*eG*eA*d[5mC]*d[5mC]*dT*dT*dT*dG*d[5mC]*dT*dG*dG*eG*eA*eG*eG*eA) [compound 416512] | 43 | – |
| 416513 (antisense e[5mC]*eT*eG*eA*eT*dG*dT*dG*dA*dA*dA*dA*d[5mC]*d[5mC]*dG*eG*e[5mC]*eA*eT*eG) [compound 416513] | 37 | – |
| 416514 (antisense eG*eT*eA*eT*eT*dT*dT*d[5mC]*dT*dG*dA*dT*dG*dT*dG*eA*eA*eA*eA*e[5mC]) [compound 416514] | 8 | – |
| 416515 (antisense eT*eA*eG*eG*e[5mC]*dA*dT*dG*dA*d[5mC]*d[5mC]*dA*dT*d[5mC]*d[5mC]*eT*e[5mC]*eA*eA*eT) [compound 416515] | 39 | – |
| 416516 (antisense eG*eT*eG*eA*eG*dA*dA*dT*dA*d[5mC]*dA*dA*d[5mC]*dA*dG*eA*eT*eG*eA*eG) [compound 416516] | 24 | – |
| 416517 (antisense eG*eG*eG*eT*eG*d[5mC]*dA*dG*dT*dA*dG*d[5mC]*dA*dG*dA*eT*eG*e[5mC]*eA*eA) [compound 416517] | 23 | – |

| Substance | % Inhibition of human Factor 7 mRNA levels [1] [%] | % Inhibition of human Factor 7 mRNA levels (gapmers (5-10-5, 3-14-3, 2-13-5 MOE) targeted to nucleobases 4868 to 4899 of SEQ ID NO: 1) [%] |
| --- | --- | --- |
| 416518 (antisense eG*eG*eG*eT*eG*dA*d[5mC]*d[5mC]*dA*d[5mC]*dA*d[5mC]*dA*dT*dT*eT*e[5mC]*e[5mC]*eT*eG) [compound 416518] | 55 | – |
| 416519 (antisense eA*eA*eA*eT*eA*dT*dG*dG*dG*dA*d[5mC]*d[5mC]*d[5mC]*dA*dA*eA*eG*eT*eG*eG) [compound 416519] | 9 | – |
| 416520 (antisense e[5mC]*e[5mC]*e[5mC]*eT*e[5mC]*dT*dG*d[5mC]*dA*dA*dA*dT*dA*dT*dG*eG*eG*eA*e[5mC]*e[5mC]) [compound 416520] | 14 | – |
| 416521 (antisense e[5mC]*eA*e[5mC]*e[5mC]*e[5mC]*d[5mC]*dA*d[5mC]*d[5mC]*dA*dG*dG*dT*dT*dG*eT*eG*e[5mC]*eA*e[5mC]) [compound 416521] | 36 | – |
| 416522 (antisense eG*eG*e[5mC]*eT*eG*dA*dG*dA*dA*dT*dT*dG*d[5mC]*d[5mC]*d[5mC]*eA*eG*eG*eG*e[5mC]) [compound 416522] | 25 | – |
| 416523 (antisense eT*e[5mC]*eT*e[5mC]*eG*dA*dG*dG*dG*d[5mC]*dT*dG*dA*dG*dA*eA*eT*eT*eG*e[5mC]) [compound 416523] | 18 | – |
| 416524 (antisense eT*eA*eA*eT*eT*dT*dA*dA*dT*dA*dT*dT*d[5mC]*dA*dG*eA*eT*eG*eG*eT) [compound 416524] | 0 | – |
| 416525 (antisense eT*eA*eT*eG*eA*dG*dT*d[5mC]*d[5mC]*dT*dT*d[5mC]*dT*dA*dG*eT*eG*eA*eA*eT) [compound 416525] | 5 | – |
| 416526 (antisense eT*eG*eT*e[5mC]*e[5mC]*dA*d[5mC]*dA*dT*dG*dA*d[5mC]*d[5mC]*d[5mC]*d[5mC]*eA*e[5mC]*eA*eG*eG) [compound 416526] | 19 | – |
| 416527 (antisense eG*eA*eG*e[5mC]*eT*dT*d[5mC]*d[5mC]*d[5mC]*dA*dA*dG*dT*dT*dG*eG*e[5mC]*eA*eG*eT) [compound 416527] | 49 | – |
| 416528 (antisense eT*eG*eA*eT*eA*dA*dA*dA*d[5mC]*d[5mC]*dT*d[5mC]*dT*dG*dG*eA*e[5mC]*eA*e[5mC]*e[5mC]) [compound 416528] | 10 | – |
| 416529 (antisense eG*eG*eG*e[5mC]*eT*dG*dA*dG*dA*d[5mC]*dT*dG*dA*dG*dG*eT*e[5mC]*eA*eG*e[5mC]) [compound 416529] | 18 | – |
| 416530 (antisense eA*eG*eG*eG*eT*dA*dG*d[5mC]*d[5mC]*dT*dT*dT*dG*d[5mC]*d[5mC]*eT*eT*eG*eG*e[5mC]) [compound 416530] | 35 | – |
| 416531 (antisense eA*eG*eA*eT*eG*dA*d[5mC]*d[5mC]*dA*dG*d[5mC]*dA*dG*dG*dA*eA*eG*e[5mC]*e[5mC]*eT) [compound 416531] | 19 | – |
| 416532 (antisense eG*eG*eA*e[5mC]*e[5mC]*d[5mC]*dA*dG*dA*dT*dG*dA*d[5mC]*d[5mC]*dA*eG*e[5mC]*eA*eG*eG) [compound 416532] | 12 | – |
| 416533 (antisense eG*e[5mC]*eA*eT*eT*d[5mC]*dT*dG*dG*dA*d[5mC]*d[5mC]*d[5mC]*dA*dG*eA*eT*eG*eA*e[5mC]) [compound 416533] | 41 | – |
| 416534 (antisense eA*eT*eG*e[5mC]*eA*d[5mC]*dA*d[5mC]*d[5mC]*dA*dG*dG*dG*d[5mC]*dT*eG*e[5mC]*eT*eG*eG) [compound 416534] | 32 | – |
| 416535 (antisense eG*e[5mC]*eA*eG*eG*dA*dT*dG*d[5mC]*dA*d[5mC]*dA*d[5mC]*d[5mC]*dA*eG*eG*eG*e[5mC]*eT) [compound 416535] | 47 | – |
| 416536 (antisense e[5mC]*eG*eG*eG*eA*dA*dG*dG*d[5mC]*d[5mC]*dT*dG*d[5mC]*d[5mC]*d[5mC]*eT*eG*e[5mC]*eA*eG) [compound 416536] | 23 | – |
| 416537 (antisense eT*eG*eA*e[5mC]*e[5mC]*dA*d[5mC]*dT*d[5mC]*dT*dT*d[5mC]*d[5mC]*dG*dA*eG*e[5mC]*eA*eG*e[5mC]) [compound 416537] | 55 | – |
| 416538 (antisense e[5mC]*eG*eT*eG*eG*dA*d[5mC]*dT*dG*dA*dT*d[5mC]*d[5mC]*dA*dA*eA*eG*eG*eA*e[5mC]) [compound 416538] | 46 | – |
| 416539 (antisense eG*eA*e[5mC]*eA*eG*dA*dG*d[5mC]*d[5mC]*dT*dG*dA*dG*d[5mC]*dT*eT*eG*eG*e[5mC]*eA) [compound 416539] | 53 | – |

Source: patent US20120214862A1, “MODULATION OF FACTOR 7 EXPRESSION” (ISIS Pharmaceuticals, Inc., priority 2009, published 2012)
